The text below walks through data of patent US9562035B2, “Benzamide derivative useful as FASN inhibitors for the treatment of cancer” (Janssen Pharmaceutica NV, priority 2013, dated 2017).

In assay [1] the test system is A2780 ovarian cells. The assay is described as follows: A2780 Ovarian Cell Proliferation Assay in Lipid Reduced Medium, without Palmitate. The class given is cell-based. The following applies: Homo sapiens, A2780; lipid reduced medium, without palmitate, 96 h, MTT; read-out: Proliferation A2780 w/o Palmitate pIC50 (converted). Summed up: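 A2780 cells were seeded in 10% FCS medium and switched next day to 10% lipid-reduced serum without palmitate. Compounds at 0.01–30 μM were added with 0.2% DMSO, 0.2% fatty-acid-free BSA and 0.25% ethanol final. After 96 h, MTT absorbance at 544 nm was normalized to plate controls, and IC50/pIC50 came from a 4-parameter logistic fit.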

For assay [2], the system named is A2780 ovarian cells. Kind of assay: A2780 Ovarian Cell Proliferation Assay in Lipid Reduced Medium, with Palmitate (control). It counts as cell-based. To be noted: Homo sapiens, A2780; lipid reduced medium, 25 μM palmitate, 96 h, MTT; read-out: Proliferation A2780 with Palmitate pIC50 (converted). In a few lines: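 A2780 cells were seeded in RPMI1640 with 10% FCS, then switched next day to medium with 10% lipid-reduced serum. Compound was added with final 25 μM palmitate, 0.2% fatty-acid-free BSA and 0.2% DMSO, and incubated 96 h at 37 °C. Read-out was MTT absorbance at 544 nm; pIC50 = −log(IC50) from curve fit.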

Assay [3] addresses T1, hFASN enzyme (full length) (Homo sapiens, UniProt P49327).
T1 construct: 10 μL hFASN enzyme (full length, 300 ng, purified in house); made in house
Kind of assay: Fatty Acid Synthase (FASN) Inhibition Scintillation Proximity Assay. The following applies: for IC50: mean where tested more than once, ~ = standard error of pIC50 larger than 0.5; for inhibition at 10 µM: read-out: FASN % Effect @1E−05M. The class given is biochemical. Summed up:
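Purified full-length human FASN (300 ng) incubated 60 min at room temperature with NADPH, [3H]-acetyl-CoA and malonyl-CoA in 100 mM KH2PO4 pH 7.5, 1 mM DTT; compound at 30 μM to 0.01 μM. [3H]-palmitate captured by SPA imaging beads; IC50 from 4-parameter fit, reported as pIC50.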

Assay [4] addresses T2, FASN Keto-reductase Domain (Homo sapiens, UniProt P49327).
T2 construct: 10 μL hFASN enzyme (full length, 300 ng, purified in house) and 360 μM NADPH; made in house
Kind of assay: Fatty Acid Synthase Keto-Reductase Domain (FASN KR) Inhibition. The following applies: mean where tested more than once; read-out: FASN K-R Domain pIC50 (converted). It counts as biochemical. Summed up: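 Full-length human FASN (300 ng) in 100 mM KH2PO4 pH 7.5 with 360 μM NADPH and 180 mM ethyl acetoacetate (stock); A340 decrease read over 20 min at room temperature.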

T2 sequence (P49327 whole entry, the tested form may be a part): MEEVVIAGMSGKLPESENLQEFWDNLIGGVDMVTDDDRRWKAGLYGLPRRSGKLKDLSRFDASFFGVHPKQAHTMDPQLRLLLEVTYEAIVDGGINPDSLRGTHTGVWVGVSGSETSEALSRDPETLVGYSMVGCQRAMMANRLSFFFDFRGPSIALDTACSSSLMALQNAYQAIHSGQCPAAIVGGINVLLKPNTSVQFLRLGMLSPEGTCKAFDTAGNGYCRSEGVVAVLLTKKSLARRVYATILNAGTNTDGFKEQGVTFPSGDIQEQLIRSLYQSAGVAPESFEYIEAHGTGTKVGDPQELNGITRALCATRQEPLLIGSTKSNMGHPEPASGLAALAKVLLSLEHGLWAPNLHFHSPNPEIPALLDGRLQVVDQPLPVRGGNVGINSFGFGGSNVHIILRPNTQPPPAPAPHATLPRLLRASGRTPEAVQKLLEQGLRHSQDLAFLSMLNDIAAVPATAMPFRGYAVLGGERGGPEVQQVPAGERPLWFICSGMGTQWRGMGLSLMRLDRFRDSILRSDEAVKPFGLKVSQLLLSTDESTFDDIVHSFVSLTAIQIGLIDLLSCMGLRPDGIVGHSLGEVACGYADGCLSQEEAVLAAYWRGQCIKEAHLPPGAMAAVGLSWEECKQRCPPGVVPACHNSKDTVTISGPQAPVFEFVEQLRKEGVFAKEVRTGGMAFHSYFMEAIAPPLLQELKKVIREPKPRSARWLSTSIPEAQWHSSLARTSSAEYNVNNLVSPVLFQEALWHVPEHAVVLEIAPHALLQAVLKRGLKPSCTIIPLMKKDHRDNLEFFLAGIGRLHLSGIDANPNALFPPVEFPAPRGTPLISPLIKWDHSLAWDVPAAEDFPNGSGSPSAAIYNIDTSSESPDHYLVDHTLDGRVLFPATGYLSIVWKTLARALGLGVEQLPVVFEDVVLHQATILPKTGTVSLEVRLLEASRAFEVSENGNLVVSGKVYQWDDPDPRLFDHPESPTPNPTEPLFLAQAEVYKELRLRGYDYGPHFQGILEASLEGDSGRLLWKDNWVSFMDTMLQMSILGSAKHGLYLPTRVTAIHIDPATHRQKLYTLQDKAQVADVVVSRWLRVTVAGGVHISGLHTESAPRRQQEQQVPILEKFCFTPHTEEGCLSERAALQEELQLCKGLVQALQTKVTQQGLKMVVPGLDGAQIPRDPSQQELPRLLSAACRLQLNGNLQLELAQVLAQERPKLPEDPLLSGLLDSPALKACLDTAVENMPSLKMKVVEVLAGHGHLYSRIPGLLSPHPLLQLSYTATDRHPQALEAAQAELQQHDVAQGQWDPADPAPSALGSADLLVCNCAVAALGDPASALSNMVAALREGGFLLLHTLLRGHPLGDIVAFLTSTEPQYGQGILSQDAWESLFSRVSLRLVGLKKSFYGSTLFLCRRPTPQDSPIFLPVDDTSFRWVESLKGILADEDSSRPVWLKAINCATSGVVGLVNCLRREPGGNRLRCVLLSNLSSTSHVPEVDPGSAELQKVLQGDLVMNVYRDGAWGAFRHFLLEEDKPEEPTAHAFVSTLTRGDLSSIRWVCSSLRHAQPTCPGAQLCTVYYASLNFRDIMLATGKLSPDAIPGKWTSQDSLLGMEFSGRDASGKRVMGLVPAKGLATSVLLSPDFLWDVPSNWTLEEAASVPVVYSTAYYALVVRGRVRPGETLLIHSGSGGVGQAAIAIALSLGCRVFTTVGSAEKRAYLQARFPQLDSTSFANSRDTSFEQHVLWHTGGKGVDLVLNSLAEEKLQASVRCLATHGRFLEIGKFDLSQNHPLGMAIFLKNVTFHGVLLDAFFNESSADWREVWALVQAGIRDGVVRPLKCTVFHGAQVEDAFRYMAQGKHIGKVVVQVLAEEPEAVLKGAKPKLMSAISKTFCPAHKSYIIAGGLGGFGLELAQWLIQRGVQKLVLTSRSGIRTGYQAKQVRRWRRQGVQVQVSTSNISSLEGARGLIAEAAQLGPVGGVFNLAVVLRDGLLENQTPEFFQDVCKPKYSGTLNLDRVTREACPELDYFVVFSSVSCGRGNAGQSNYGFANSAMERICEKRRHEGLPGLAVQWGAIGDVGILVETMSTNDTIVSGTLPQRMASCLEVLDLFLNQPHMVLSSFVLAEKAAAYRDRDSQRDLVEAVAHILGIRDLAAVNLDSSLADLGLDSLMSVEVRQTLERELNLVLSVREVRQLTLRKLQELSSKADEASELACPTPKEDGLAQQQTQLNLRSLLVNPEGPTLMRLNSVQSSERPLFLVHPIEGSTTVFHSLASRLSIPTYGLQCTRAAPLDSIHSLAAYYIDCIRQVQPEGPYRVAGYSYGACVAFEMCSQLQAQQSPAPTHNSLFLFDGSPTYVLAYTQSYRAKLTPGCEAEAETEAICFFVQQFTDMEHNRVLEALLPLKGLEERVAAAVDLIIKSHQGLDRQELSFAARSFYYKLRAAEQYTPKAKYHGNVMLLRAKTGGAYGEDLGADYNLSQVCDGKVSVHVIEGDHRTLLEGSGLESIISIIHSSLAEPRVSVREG
T1 sequence (P49327 whole entry): as the sequence (P49327 whole entry, the tested form may be a part) above

As for `COc1ccc(C(=O)Nc2cc(C(=O)N3CCC(c4ccc(-c5cnn(C)c5)cc4)CC3)ccc2C)cc1O` [Compound 135, 3-hydroxy-4-methoxy-N-(2-methyl-5-(4-(4-(1-methyl-1H-pyrazol-4-yl)phenyl)piperidine-1-carbonyl)phenyl)benzamide], the IC50 was 87.1 nM in the assay on A2780 ovarian cells [1], more than 10000 nM in the assay on A2780 ovarian cells [2], 16.2 nM in assay [3] and 55 nM in assay [4]. Besides, the inhibition at 10 µM in assay [3] came out at 107%.
Consider `Cc1ccc(C(=O)N2CCC(c3ccc(-c4cnn(C)c4)cc3)CC2)cc1NC(=O)c1cnc(Cl)nc1` [Compound 136, 2-chloro-N-(2-methyl-5-(4-(4-(1-methyl-1H-pyrazol-4-yl)phenyl)piperidine-1-carbonyl)phenyl)pyrimidine-5-carboxamide], for which the IC50 with A2780 ovarian cells [1] is 1230 nM; in the assay with A2780 ovarian cells [2] it was approximately 5130 nM; in assay [3], 30.9 nM; in assay [4], 69.2 nM. The inhibition at 10 µM in assay [3] amounted to 105%.
With `Cc1ccc(C(=O)N2CCC(c3ccc(-c4cnn(C)c4)cc3)CC2)cc1NC(=O)c1cc(F)ccc1C` [Compound 137, 5-fluoro-2-methyl-N-(2-methyl-5-(4-(4-(1-methyl-1H-pyrazol-4-yl)phenyl)piperidine-1-carbonyl)phenyl)benzamide], the IC50 is 417 nM in the assay on A2780 ovarian cells [1], more than 10000 nM in the assay with A2780 ovarian cells [2], 55 nM in assay [3] and 240 nM in assay [4]. Further, the inhibition at 10 µM in assay [3] was 103%.
Take `Cc1ccc(C(=O)N2CCC(c3ccc(-c4cnn(C)c4)cc3)CC2)cc1NC(=O)c1ccc(C#N)cc1` [Compound 138, 4-cyano-N-(2-methyl-5-(4-(4-(1-methyl-1H-pyrazol-4-yl)phenyl)piperidine-1-carbonyl)phenyl)benzamide]: the IC50 in the assay on A2780 ovarian cells [1] was 331 nM; with A2780 ovarian cells [2], more than 10000 nM; in assay [3] it was 91.2 nM; in assay [4], 195 nM. The inhibition at 10 µM in assay [3] came to 107%.
For the molecule `Cc1ccc(C(=O)N2CC(c3ccc(-c4cnn(C)c4)cc3)C2)cc1NC(=O)c1ccncc1` [Compound 139, N-(2-methyl-5-(3-(4-(1-methyl-1H-pyrazol-4-yl)phenyl)azetidine-1-carbonyl)phenyl)isonicotinamide], the IC50 with A2780 ovarian cells [1] is 97.7 nM; in the assay with A2780 ovarian cells [2] it was more than 10000 nM; in assay [3], 31.6 nM; in assay [4], 95.5 nM. The inhibition at 10 µM in assay [3] amounted to 101%.
`Cc1ccc(C(=O)N2CC(c3ccc(-c4cnn(C)c4)cc3)C2)cc1NC(=O)c1ccc(N(C)C2CCN(C)CC2)nc1` [Compound 140, 6-(methyl(1-methylpiperidin-4-yl)amino)-N-(2-methyl-5-(3-(4-(1-methyl-1H-pyrazol-4-yl)phenyl)azetidine-1-carbonyl)phenyl)nicotinamide]: the IC50 in the assay on A2780 ovarian cells [1] was approximately 23.4 nM; with A2780 ovarian cells [2], 7760 nM; in assay [3], 15.8 nM; in assay [4], 39.8 nM. The inhibition at 10 µM in assay [3] is 114%.
With `Cc1ccc(C(=O)N2CC(c3ccc(-c4cnn(C)c4)cc3)C2)cc1NC(=O)c1ccc(N2CCN(C)CC2)nc1` [Compound 141, N-(2-methyl-5-(3-(4-(1-methyl-1H-pyrazol-4-yl)phenyl)azetidine-1-carbonyl)phenyl)-6-(4-methylpiperazin-1-yl)nicotinamide], the IC50 is 36.3 nM with A2780 ovarian cells [1], 6610 nM in the assay on A2780 ovarian cells [2], 21.9 nM in assay [3] and 72.4 nM in assay [4]. Further, in assay [3], the inhibition at 10 µM turned out to be 110%.
As to `Cc1ccc(C(=O)N2CC(c3ccc(-c4cnn(C)c4)cc3)C2)cc1NC(=O)C1CC1` [Compound 142, N-(2-methyl-5-(3-(4-(1-methyl-1H-pyrazol-4-yl)phenyl)azetidine-1-carbonyl)phenyl)cyclopropanecarboxamide], the IC50 in the assay on A2780 ovarian cells [1] was 107 nM; in the assay with A2780 ovarian cells [2], more than 10000 nM; in assay [3], 46.8 nM; in assay [4], 110 nM. Moreover, the inhibition at 10 µM in assay [3] worked out at 106%.
Turning to `Cc1ccc(C(=O)N2CC(c3ccc(-c4cnn(C)c4)cc3)C2)cc1NC(=O)C1CCC1` [Compound 143, N-(2-methyl-5-(3-(4-(1-methyl-1H-pyrazol-4-yl)phenyl)azetidine-1-carbonyl)phenyl)cyclobutanecarboxamide], the IC50 with A2780 ovarian cells [1] was 302 nM; with A2780 ovarian cells [2], more than 10000 nM; in assay [3], 44.7 nM; in assay [4] it was 170 nM. Also, in assay [3], the inhibition at 10 µM amounted to 114%.
On to `Cc1ccc(C(=O)N2CCC(c3ccc(-c4cnn(C)c4)cc3)CC2)cc1NC(=O)c1cnc(N(C)C(C)C)nc1` [Compound 144, 2-(isopropyl(methyl)amino)-N-(2-methyl-5-(4-(4-(1-methyl-1H-pyrazol-4-yl)phenyl)piperidine-1-carbonyl)phenyl)pyrimidine-5-carboxamide], for which the IC50 with A2780 ovarian cells [1] is approximately 12.3 nM; in the assay with A2780 ovarian cells [2], 7760 nM; in assay [3] it was 24 nM; in assay [4], 35.5 nM. In addition, the inhibition at 10 µM in assay [3] came to 106%.
As to `Cc1ccc(C(=O)N2CCC(c3ccc(-c4cnn(C)c4)cc3)CC2)cc1NC(=O)c1ccc(C(F)(F)F)cc1` [Compound 145, N-(2-methyl-5-(4-(4-(1-methyl-1H-pyrazol-4-yl)phenyl)piperidine-1-carbonyl)phenyl)-4-(trifluoromethyl)benzamide], the IC50 in the assay with A2780 ovarian cells [1] is 69.2 nM; with A2780 ovarian cells [2], 10500 nM; in assay [3] it was 21.9 nM; in assay [4], 33.9 nM. In assay [3], the inhibition at 10 µM was 103%.
With `Cc1ccc(C(=O)N2CCC(c3ccc(-c4cnn(C)c4)cc3)CC2)cc1NC(=O)c1cnc(NC(C)C)nc1` [Compound 146, 2-(isopropylamino)-N-(2-methyl-5-(4-(4-(1-methyl-1H-pyrazol-4-yl)phenyl)piperidine-1-carbonyl)phenyl)pyrimidine-5-carboxamide], the IC50 in the assay with A2780 ovarian cells [1] was approximately 20.4 nM; in the assay with A2780 ovarian cells [2], more than 10000 nM; in assay [3], 19.1 nM; in assay [4] it was 32.4 nM. Further, the inhibition at 10 µM in assay [3] stood at 110%.
On to `Cc1ccc(C(=O)N2CCC(c3ccc(-c4cnn(C)c4)cc3)CC2)cc1NC(=O)c1ccc(F)cc1Cl` [Compound 147, 2-chloro-4-fluoro-N-(2-methyl-5-(4-(4-(1-methyl-1H-pyrazol-4-yl)phenyl)piperidine-1-carbonyl)phenyl)benzamide], for which the IC50 in the assay with A2780 ovarian cells [1] is 234 nM; in the assay with A2780 ovarian cells [2] it was more than 10000 nM; in assay [3], 34.7 nM; in assay [4], 138 nM. Further, in assay [3], the inhibition at 10 µM is 107%.
For `Cc1ccc(C(=O)N2CCC(c3ccc(-c4cnn(C)c4)cc3)CC2)cc1NC(=O)c1ccc(C(C)C)cc1` [Compound 148, 4-isopropyl-N-(2-methyl-5-(4-(4-(1-methyl-1H-pyrazol-4-yl)phenyl)piperidine-1-carbonyl)phenyl)benzamide], in that order: 89.1 nM, 8320 nM, 47.9 nM, 53.7 nM and 102%.
Regarding `Cc1ccc(C(=O)N2CCC(c3ccc(-c4cnn(C)c4)cc3)CC2)cc1NC(=O)c1sccc1C` [Compound 149, 3-methyl-N-(2-methyl-5-(4-(4-(1-methyl-1H-pyrazol-4-yl)phenyl)piperidine-1-carbonyl)phenyl)thiophene-2-carboxamide], the IC50 in the assay with A2780 ovarian cells [1] is 457 nM; in the assay on A2780 ovarian cells [2], 9550 nM; in assay [3], 57.5 nM; in assay [4], 214 nM. In addition, the inhibition at 10 µM in assay [3] was 103%.
As for `Cc1ccc(C(=O)N2CCC(c3ccc(-c4cnn(C)c4)cc3)CC2)cc1NC(=O)C1CCNCC1` [Compound 150, N-(2-methyl-5-(4-(4-(1-methyl-1H-pyrazol-4-yl)phenyl)piperidine-1-carbonyl)phenyl)piperidine-4-carboxamide], the IC50 in the assay with A2780 ovarian cells [1] is 479 nM; in the assay on A2780 ovarian cells [2], more than 10000 nM; in assay [3] it was 43.7 nM; in assay [4] it was 155 nM. Besides, in assay [3], the inhibition at 10 µM is 110%.
On to `Cc1ccc(C(=O)N2CCC(c3ccc(-c4cnn(C)c4)cc3)CC2)cc1NC(=O)C1CCCO1` (stereo not shown) [Compound 151, N-(2-methyl-5-(4-(4-(1-methyl-1H-pyrazol-4-yl)phenyl)piperidine-1-carbonyl)phenyl)tetrahydrofuran-2-carboxamide], for which the IC50 in the assay on A2780 ovarian cells [1] is 1170 nM; in the assay with A2780 ovarian cells [2] it was more than 10000 nM; in assay [3], 148 nM; in assay [4], 708 nM. For the same molecule, in assay [3], the inhibition at 10 µM came to 101%.
